target: IRE1α (Homo sapiens (Human), UniProt O75460, D688N); experiment: IRE1α TR-FRET competition binding assay (IRE1α HTRF); conditions: TR-FRET competition binding to kinase domain of IRE1α
Description: IRE1α TR-FRET Competition Binding Assay. The affinity of compound binding to the kinase domain of IRE1α was determined using a time-resolved fluorescence resonance energy transfer (TR-FRET) competition assay.
The purified protein (final concentration 0.25 nM) was pre-incubated with anti-His Europium labeled antibody (Life Technologies PV5596, final concentration 2 nM) for one hour at 4° C. in TR-FRET Assay Buffer (50 mM HEPES, pH 7.5, 10 mM MgCl2, 0.083 mM Brij 35, 1 mM DTT, and 0.1% bovine gamma globulin) prior to addition to test compounds. An Alexa fluor 647-labeled probe based on an ATP competitive inhibitor was added to a final concentration of 2 nM. Reactions were carried out for one hour at room temperature in a final volume of 20 μL in 384 well white ProxiPlates (Perkin Elmer 6008289). Binding of the probe to the IRE1α protein was detected in an Envision instrument (PerkinElmer) equipped with a TRF laser option and a LANCE/Delfia Dual/Bias D400/D630 mirror (Ex 347 nm, 1st Em 665 nm, 2nd Em 615 nm).

Sequence of IRE1α (O75460 547-977 D688N): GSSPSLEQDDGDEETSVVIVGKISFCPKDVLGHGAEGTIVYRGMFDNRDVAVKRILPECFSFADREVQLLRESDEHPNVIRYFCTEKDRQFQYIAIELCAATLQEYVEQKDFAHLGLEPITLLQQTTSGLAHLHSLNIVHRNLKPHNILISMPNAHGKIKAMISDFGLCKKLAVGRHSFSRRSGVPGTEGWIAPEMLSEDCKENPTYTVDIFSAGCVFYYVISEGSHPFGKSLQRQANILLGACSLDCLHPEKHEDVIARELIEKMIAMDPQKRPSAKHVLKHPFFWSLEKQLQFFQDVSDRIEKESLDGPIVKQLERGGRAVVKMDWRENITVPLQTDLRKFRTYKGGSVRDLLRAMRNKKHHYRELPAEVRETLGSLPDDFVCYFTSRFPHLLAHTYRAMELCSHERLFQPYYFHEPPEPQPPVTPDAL

SMILES | IC50
CC(C)n1c(=O)c(-c2ccc(NS(=O)(=O)CC3CC(F)(F)C3)c(F)c2)nc2cnc(N[C@@H]3CC[C@@H](N(C)C)[C@H](F)C3)nc21 (stereo in doubt) [Compound 193B, 1-(3,3-Difluorocyclobutyl)-N-(4-(2-((4-(dimethylamino)-3-fluorocyclohexyl)amino)-8-isopropyl-7-oxo-7,8-dihydropteridin-6-yl)-2-fluorophenyl)methanesulfonamide] | 0.17 nM
CC(C)n1c(=O)c(-c2ccc(NS(=O)(=O)Cc3ccccc3F)c(F)c2)cc2cnc(N[C@@H]3CNC[C@@H](F)C3)nc21 [Compound 90, N-(2-Fluoro-4-(2-(((3S,5S)-5-fluoropiperidin-3-yl)amino)-8-isopropyl-7-oxo-7,8-dihydropyrido[2,3-d]pyrimidin-6-yl)phenyl)-1-(2-fluorophenyl)methanesulfonamide] | 0.21 nM
CC(C)n1c(=O)c(-c2ccc(NS(=O)(=O)c3ccccc3Cl)c(F)c2)nc2cnc(N[C@@H]3CNC[C@@H](F)C3)nc21 [Compound 75, 2-Chloro-N-[2-fluoro-4-[2-[[(3S,5S)-5-fluoro-3-piperidyl]amino]-8-isopropyl-7-oxo-pteridin-6-yl]phenyl]benzenesulfonamide] | 0.3 nM
CC(C)n1c(=O)c(-c2cc(F)c(NS(=O)(=O)Cc3ccccc3C#N)c(F)c2F)cc2cnc(N[C@@H]3CNC[C@@H](F)C3)nc21 [Compound 32, 1-(2-Cyanophenyl)-N-(2,3,6-trifluoro-4-(2-(((3S,5S)-5-fluoropiperidin-3-yl)amino)-8-isopropyl-7-oxo-7,8-dihydropyrido[2,3-d]pyrimidin-6-yl)phenyl)methanesulfonamide] | 0.34 nM
CC(C)n1c(=O)c(-c2ccc(NS(=O)(=O)Cc3ccccc3)c(F)c2F)nc2cnc(N[C@@H]3CNC[C@@H](F)C3)nc21 [Compound 43, N-(2,3-Difluoro-4-(2-(((3S,5S)-5-fluoropiperidin-3-yl)amino)-8-isopropyl-7-oxo-7,8-dihydropteridin-6-yl)phenyl)-1-phenylmethanesulfonamide] | 0.71 nM
Cn1c(=O)c(-c2cccc3c(NS(=O)(=O)CCC(F)(F)F)c(F)ccc23)cc2cnc(N[C@H]3CCCNC3)nc21 [Compound 4, (S)-3,3,3-Trifluoro-N-(2-fluoro-5-(8-methyl-7-oxo-2-(piperidin-3-ylamino)-7,8-dihydropyrido[2,3-d]pyrimidin-6-yl)naphthalen-1-yl)propane-1-sulfonamide] | 5 nM
CC(C)n1c(=O)c(-c2ccc(NS(=O)(=O)Cc3ccccc3F)nc2)cc2cnc(N[C@@H]3CNC[C@@H](F)C3)nc21 [Compound 93, 1-(2-Fluorophenyl)-N-(5-(2-(((3S,5S)-5-fluoropiperidin-3-yl)amino)-8-isopropyl-7-oxo-7,8-dihydropyrido[2,3-d]pyrimidin-6-yl)pyridin-2-yl)methanesulfonamide] | 0.24 nM
CCC(F)(F)CS(=O)(=O)Nc1ccc(-c2nc3cnc(N[C@@H]4CNC[C@@H](F)C4)nc3n(C(C)C)c2=O)cc1F [Compound 83, 2,2-Difluoro-N-[2-fluoro-4-[2-[[(3S,5S)-5-fluoro-3-piperidyl]amino]-8-isopropyl-7-oxo-pteridin-6-yl]phenyl]butane-1-sulfonamide] | 0.4 nM
COc1nc(NS(=O)(=O)c2ccccc2Cl)ccc1-c1cc2cnc(N[C@H]3CC[C@H](N(C)C)CC3)nc2n(C(C)C)c1=O [Compound 131, 2-Chloro-N-(5-(2-(((1r,4r)-4-(dimethylamino)cyclohexyl)amino)-8-isopropyl-7-oxo-7,8-dihydropyrido[2,3-d]pyrimidin-6-yl)-6-methoxypyridin-2-yl)benzenesulfonamide] | 0.21 nM
CC(C)n1c(=O)c(-c2ccc(NS(=O)(=O)c3ccccc3Cl)nc2)cc2cnc(N[C@H]3CC[C@H](N(C)C)CC3)nc21 [Compound 105, 2-Chloro-N-(5-(2-(((1r,4r)-4-(dimethylamino)cyclohexyl)amino)-8-isopropyl-7-oxo-7,8-dihydropyrido[2,3-d]pyrimidin-6-yl)pyridin-2-yl)benzenesulfonamide] | 0.16 nM
CC1CC1C(=O)Nc1c(F)cc(-c2cc3cnc(N[C@H]4CC[C@H](N(C)C)CC4)nc3n(C(C)C)c2=O)c(F)c1F (stereo partly drawn) [Compound 58, (1S,2R)—N-(4-(2-(((1r,4r)-4-(dimethylamino)cyclohexyl)amino)-8-isopropyl-7-oxo-7,8-dihydropyrido[2,3-d]pyrimidin-6-yl)-2,3,6-trifluorophenyl)-2-methylcyclopropane-1-carboxamide] | 5.7 nM

Results, then the compound that gave them:

IC50 | SMILES
0.15 nM | CC(C)n1c(=O)c(-c2c(F)cc(NS(=O)(=O)Cc3ccc(F)cc3)c(F)c2F)cc2cnc(N[C@H]3CC[C@H](N(C)C)CC3)nc21 [Compound 128, N-(4-(2-(((1r,4r)-4-(Dimethylamino)cyclohexyl)amino)-8-isopropyl-7-oxo-7,8-dihydropyrido[2,3-d]pyrimidin-6-yl)-2,3,5-trifluorophenyl)-1-(4-fluorophenyl)methanesulfonamide]
1.7 nM | CC(C)n1c(=O)c(-c2ccc(NS(=O)(=O)CCC(F)(F)F)nc2)cc2cnc(N[C@@H]3CNC[C@@H](F)C3)nc21 [Example 216, 3,3,3-trifluoro-N-(5-(2-(((3S,5S)-5-fluoro-piperidin-3-yl)amino)-8-isopropyl-7-oxo-7,8-dihydropyrido[2,3-d]-pyrimidin-6-yl)pyridin-2-yl)propane-1-sulfon-amide]
0.24 nM | CC(C)n1c(=O)c(-c2ccc(NS(=O)(=O)CCC(F)(F)F)c(F)c2)cc2cnc(N[C@H]3CC[C@H](N4CC5(COC5)C4)CC3)nc21 [Compound 212, N-(4-(2-(((1,4-trans)-4-(2-Oxa-6-azaspiro[3.3]heptan-6-yl)cyclohexyl)amino)-8-isopropyl-7-oxo-7,8-dihydropyrido[2,3-d]pyrimidin-6-yl)-2-fluorophenyl)-3,3,3-trifluoropropane-1-sulfonamide]
0.1 nM | CCCS(=O)(=O)Nc1c(F)cc(-c2nc3cnc(N[C@H]4CC[C@H](N(C)C)CC4)nc3n(C(C)C)c2=O)cc1F [Example 242, N-[4-[2-[[4-(Dimethylamino)cyclohexyl]amino]-8-isopropyl-7-oxo-pteridin-6-yl]-2,6-difluoro-phenyl]propane-1-sulfonamide]
0.26 nM | CC(C)n1c(=O)c(-c2cc(F)c(NS(=O)(=O)CCC(F)(F)F)c(F)c2)cc2cnc(N[C@H]3CC[C@H](N(C)C)CC3)nc21 [Compound 70, N-(4-(2-(((1,4-trans)-4-(Dimethylamino)cyclohexyl)amino)-8-isopropyl-7-oxo-7,8-dihydropyrido[2,3-d]pyrimidin-6-yl)-2,6-difluorophenyl)-3,3,3-trifluoropropane-1-sulfonamide]
0.2 nM | CC(C)n1c(=O)c(-c2ccc(NS(=O)(=O)CC3CCC3)c(F)c2)nc2cnc(N[C@H]3CC[C@H](N(C)C)CC3)nc21 [Example 278, 1-Cyclobutyl-N-[4-[2-[[4-(dimethylamino)cyclohexyl]amino]-8-isopropyl-7-oxo-pteridin-6-yl]-2-fluoro-phenyl]methanesulfonamide]
0.25 nM | COCCN(CCOC)[C@H]1CC[C@H](Nc2ncc3cc(-c4ccc(NS(=O)(=O)CCC(F)(F)F)c(F)c4)c(=O)n(C(C)C)c3n2)CC1 [Compound 210, N-(4-(2-(((1,4-trans)-4-(Bis(2-methoxyethyl)amino)cyclohexyl)amino)-8-isopropyl-7-oxo-7,8-dihydropyrido[2,3-d]pyrimidin-6-yl)-2-fluorophenyl)-3,3,3-trifluoropropane-1-sulfonamide]
